Source: patent US5459256A, “Lipophilic, aminohydrolase-activated prodrugs” (priority 1991, dated 1995)

Assays:
[1] = physchem; settings: octanol/ph 7.0 buffer, pH 7, Log P
Method: Measurement of Octanol-Water Partition Coefficients.
n-Octanol-water partition coefficients (P) were determined by a microscale shake-flask procedure, (Ford, H. et al Abstracts of Papers, 200th National Meeting of the American Chemical Society, Washington, D.C.; American Chemical Society: Washington, D.C., 1990; CARB 13) which was modification of an earlier method (Nahum, A. & Horvath, C. J. Chromatogr. 1980, 192, 315). A 20 μL aliquot of a 0.5 mg/mL DMSO solution of the dideoxynucleoside was dissolved in 1.0 mL of octanol-saturated, pH 7.0, 0.01M potassium phosphate buffer. This was mixed thoroughly with 1.0 ml of buffer-saturated n-octanol in a 2-mL Mixxor apparatus at 24°-26° C. and then allowed to stand for 15 min. The phases were separated, centrifuged at 600×g for 5 min, and the relative concentration of sample in each phase determined by HPLC analysis of a 50 μl aliquot. The partition coefficient was calculated by dividing the absolute area of the appropriate integrated peak from the octanol phase by that of the buffer phase (Table I).
Octanol/pH 7.0 buffer partition coefficients were determined using a newly developed microscale method. […] The addition of a methyl group normally increases the log P value of a compound by about 0.5.

[2] = Toxicity on ATH8 target cells (% toxicity, dye exclusion); format: cell-based; settings: human, ath8 cells, % Toxicity
Method: (§1) HIV Cytopathic Effect Inhibition Assay.
(§2) The HIV cytopathic effect inhibition assay was performed as previously described. […] On day 8 in culture, the viable cells were counted by using the dye exclusion method. All compounds, including inactives, were evaluated a minimum of two times in separate experiments. Data reported in Table II are from representative tests. The % protection against the virus was determined by the following formula: 100 times [(the number of viable cells exposed to HIV-1 and cultured in the presence of the compound minus the number of viable cells exposed to HIV-1 and cultured in the absence of compound) divided by (the number of viable cells cultured alone minus the number of viable cells exposed to HIV-1 and cultured in the absence of the compound)]. The % toxicity of a compound on the target cells was determined by the following formula: 100 times [1 minus (the number of total viable cells cultured in the presence of the compound divided by the number of total viable cells cultured alone)]. Calculated percentages equal to or less than zero are expressed as 0%.

[3] = test system: CD4^+ ATH8 cells; experiment: as above; format: cell-based; settings: human
Method: as §1, §2

[4] = molecular target: T1, adenosine deaminase (adenosine aminohydrolase, EC 3.5.4.4) (Bos taurus, UniProt P56658); experiment: Enzymatic deamination by adenosine deaminase (HPLC)
T1 sequence (P56658 1-363): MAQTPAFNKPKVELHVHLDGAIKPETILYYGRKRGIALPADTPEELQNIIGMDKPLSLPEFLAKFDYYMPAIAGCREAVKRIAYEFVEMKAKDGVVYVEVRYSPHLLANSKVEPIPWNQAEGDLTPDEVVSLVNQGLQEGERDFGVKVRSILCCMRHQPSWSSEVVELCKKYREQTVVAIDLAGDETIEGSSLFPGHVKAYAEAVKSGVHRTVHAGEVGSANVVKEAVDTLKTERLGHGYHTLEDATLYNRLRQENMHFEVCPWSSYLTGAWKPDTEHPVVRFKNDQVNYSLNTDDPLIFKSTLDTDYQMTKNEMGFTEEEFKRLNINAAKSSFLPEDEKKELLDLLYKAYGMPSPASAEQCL
Method: FIG. 1. Deamination of dideoxyadenosine analogues by adenosine deaminase. Hydrolysis kinetics and 2'-F-dd-ara-I formation during the incubation of 50 μM N^6 -CH3 -2'-F-dd-ara-A (1f) with 0.7 units/mL of adenosine deaminase at 37° C. A unit of adenosine deaminase is the amount of enzyme which hydrolyzes a standard substrate (e.g., adenosine) at the rate of 1.0 μmole/min at 25° C. and pH 7.5. […] Insert: Adenosine deaminase hydrolysis kinetics for 50 μM ddA and 2'-F-dd-ara-A. The hydrolysis curve for ddA has been extrapolated from kinetics obtained with 0.07 units/mL of adenosine deaminase under identical conditions.
A 50 μl aliquot of a 10 mg/ml suspension of adenosine deaminase (adenosine aminohydrolase, EC 3.5.4.4) from calf intestinal mucosa was centrifuged at 600×g for 3 min. The residue remaining after removal of the (NH4)2 SO4 supernatant was dissolved in 0.5 ml pH 7.4 tris(hydroxymethyl)-aminomethane (Tris) buffer to give an enzyme solution of 1 mg/ml (274 units/ml). […] A pH 7.4 buffer was prepared by adjusting 0.01M Tris to pH 7.4 with 0.5N HCl, The 1.0 HCl , HPLC-grade acetonitrile, monobasic potassium phosphate, sodium hydroxide and ultrapure Tris were all commercially available and were used without further purification.
Enzymatic Deamination of Adenosine Analogues. […] A 50 μL aliquot of substrate solution was diluted with 0.95 ml 0.01M Tris buffer in a 1.5-mL Eppendorf tube and equilibrated at 37° C. in a Dubnoff metabolic shaking incubator. Reaction was initiated by addition of 2.5 μL of adenosine deaminase solution (0.7 unit). At specified time intervals, a 50 μL aliquot of the reaction mixture was withdrawn and quenched by mixing with 0.45 mL cold 2 μM 2'-deoxycoformycin. This diluted sample was ultrafiltered to remove enzyme in a Centrifree Micropartition unit by centrifugation at 600×g at 4° C. in a high speed refrigerated centrifuge. The decrease in substrate concentration was monitored by HPLC analysis of the resultant ultrafiltrate (see below). The ability of 2'-deoxycoformycin to inhibit deamination under the above conditions was evaluated by adding 2 μL of 1.0 mM inhibitor to diluted substrate solutions at the time of equilibration. Reaction, sampling and analysis were carried out as above. […] Initial hydrolysis rates for each substrate concentration were measured through linear least-squares curve fitting of the concentration versus time data for reaction of the first 10% of substrate. KM and vmax values for each substrate were then determined from a graphical lineweaver-Burke plot of these initial rates (FIG. 1).
HPLC Analysis of Dideoxypurine Nucleosides.
Concentrations of dideoxynucleosides were measured by the HPLC analysis of 100 μL aliquots of ultrafiltered samples. A 4.6×250 mm 5-μm Ultrasphere-ODS column, protected by a Waters guard column packed with 37-50 μm Vydac 201SC, was eluted with 10-20% CH3 CN in 0.01M pH 7.0 phosphate buffer at a flow rate of 1.0 mL/min. Dideoxynucleosides and deamination products were detected at the appropriate wavelength of maximum absorption with a Gilson 116 variable wavelength detector. Peak identity was determined from coincidence of retention times with standards and by comparison of on-the-fly UV spectra obtained with a Perkin-Elmer LC-235 diode array detector. Peak areas and peak heights were measured simultaneously on a Spectra-Physics SP4200 computing integrator.

[5] = test system: HIV; settings: cited from earlier work

CNc1ncnc2c1ncn2[C@@H]1O[C@H](CO)C[C@@H]1F [Compound 1f, N^6 -Methyl-9-(2'3'-dideoxy-2'-fluoro-β-D-arabinofuranosyl)adenine]
logD [1]: 0.27 ± 0.01 | cytotoxicity at 192 h, 20 µM [2]: 0% | % Toxicity ([3]; 11520 min): 11% | % Toxicity ([3]; ath8 cells, 192 h, 5 µM): 3% | % Toxicity ([3]; ath8 cells, 192 h, 10 µM): 7% | Measured Relative Rate ([4]; 50 μM substrate, pH 7.4 and 37° C., ddA = 100): 0.04 | deamination product / product formation (in words) ([4]; 0.7 U/mL ADA, 37° C.): the corresponding inosine analogue, 1b, was the product formed | half-life at 50 µM ([4]; bovine, adenosine deaminase): 3 h | vmax ([4]; pH 7.4 and 37° C.): 5.5 × 10^-4 μmol/min/U | hydrolysis rate, times slower than 1a ([4]; vs 1a, 0.7 U/mL ADA, 37° C.): 135 times slower | binding to ADA, times tighter than 1i ([4]; vs 1i): about 70 times tighter | vmax, times slower than 1i ([4]; vs 1i): 50 times slower | hydrolysis by ADA, times slower than ddA ([4]; vs ddA, 50 μM substrate): ~2500 times slower | activity against HIV in peripheral blood mononuclear cells (in words) [5]: the activity of 1f against HIV in peripheral blood mononuclear cells was recently reported
